{"source": "patent US12344620B2", "about": "“BRD4 inhibitor compound in solid form and preparation method therefor and use thereof” (CSPC ZHONGQI PHARMACEUTICAL TECHNOLOGY (SHIJIAZHUANG) CO., …, priority 2019, dated 2025)", "key": {"[1]": {"tested_on": "Mouse colon cancer MC38 cells", "experiment": "In vivo anti-tumor effect, MC38 mouse colon cancer transplantation tumor model", "settings": "15, 25 and 50 mg/kg PO BID x 20 days", "method": "• Species: mouse • Strain: C57BL6 mouse • Week-age and weight: 6-7 weeks of age, 16-20 grams of body weight • Sex: Female • Supplier: Shanghai SLAC Laboratory Animal Co., Ltd.\nMouse colon cancer MC38 cells (OBiO Technology (Shanghai) Corp., Ltd.) were cultured in monolayer in vitro, and the culture conditions were DMEM culture medium (Gibco; article number: 12100) with 10% fetal bovine serum at 37° C. in 5% CO2 in an incubator. Conventional digestion treatment with 0.25% pancreatin-EDTA for passage was carried out. When the cells were in the exponential growth phase and the density was 80%-90%, the cells were harvested, counted, and inoculated. […]\nTumor diameter was measured twice a week with vernier calipers. […]\nThe tumor inhibition effect of the compound was evaluated by TGI (%) or relative tumor proliferation rate T/C (%). […] The relative tumor volume (RTV) was calculated according to the results of the tumor measurement. The calculation equation was RTV=Vt/V0, where V0 was the average tumor volume measured at the grouping and administration (i.e. D0), and Vt was the average tumor volume at the time of a certain measurement. […]\nStatistical analysis was performed using SPSS software based on the tumor volume and the tumor weight at the end of the experiment. The comparison between two groups was analyzed by t-test, and the comparison between three or more groups was analyzed by one-way ANOVA."}, "[2]": {"experiment": "In vivo pharmacokinetics test in mice", "settings": "mouse, plasma, po; female Balb/c mice, intragastric, 3 mg/kg; read-out: Bioavailability F", "method": "(§1) Female Balb/c mice were used as test animals. The compound of formula (I) was administrated intravenously and intragastrically to mice, then the drug concentrations in the plasma at different time points were determined by the LC/MS/MS method. The in vivo pharmacokinetic behavior of the compound of formula (I) in mice was studied, and its pharmacokinetic characteristics were evaluated.\nSixteen healthy adult female Balb/c mice were divided into four groups according to the principle of similar body weight, with four mice in each group. The animals were purchased from Shanghai Lingchang BioTech Co., Ltd. of Shanghai SLAC Laboratory Animal Co., Ltd., and the animal production license number was SCXK (Shanghai) 2013-0018.\nAn appropriate amount of the sample was taken, 5% final volume of DMSO was added, and then 95% final volume of 20% HP-β-CD was added. The mixture was ultrasonically stirred to obtain a 0.5 mg/mL clear solution. After filtration, it was used for the intravenous administration. […]\n(§2) The LC/MS/MS method was used to measure the content of the compound to be tested in the plasma after the intravenous and intragastric administration to the mice. The linear range of the method was 2.00-6000 nmol/L; the plasma samples were analyzed after the protein precipitation by acetonitrile treatment."}, "[3]": {"experiment": "In vivo pharmacokinetics test in rat", "settings": "plasma, male SD rats, crystalline form A used; for AUC(0-inf): read-out: Area under curve (0-inf) AUC0-inf; for AUC(0-t): read-out: Area under curve (0-t) AUC0-last; for half-life: read-out: Half life T1/2 (converted)", "method": "as §1, with “Male SD rats” for “Female Balb/c mice”, “rats, and” for “mice,”, “rats” for “mice”\n1.1 Experiment Drug: The Compound of Formula (I) (the Crystalline Form A)\n4 healthy adult male SD rats were divided into 2 groups according to the similar weight principle, with 2 rats in each group. The animals were commercially available from Beijing Weitonglihua Laboratory Animals Ltd., animal production license number: SCXK (Beijing) 2016-0006.\nAn appropriate amount of the sample was taken, 5% final volume of DMSO was added, and then 95% final volume of 20% HP-β-CD was added. The mixture was ultrasonically stirred to obtain a 0.5 mg/mL clear solution. After filtration, it was used for the intravenous administration.\nAn appropriate amount of the sample was taken, and dissolved in a 0.5% sodium carboxymethyl cellulose solution. The mixture was ultrasonically stirred to obtain a 1 mg/mL homogeneous suspension, which was used for the intragastric administration.\nFour male SD rats were divided into two groups. After fasting overnight, the first group was administered intravenously with the administration volume of 4 mL/kg and the dosage of 2 mg/kg. The second group was administered intragastrically with the administration volume of 10 mL/kg and the dosage of 10 mg/kg.\nAfter the male SD rats were intravenously administrated, 100 μL of blood was taken at each time point of 0.0833, 0.25, 0.5, 1, 2, 4, 6, 8 and 24 hours, and placed in test tubes containing 2 μL of EDTA-K2; and after the SD rats were intragastrically administrated, 100 μL of blood was taken at each time point of 0.0833, 0.25, 0.5, 1, 2, 4, 6, 8 and 24 hours, and placed in test tubes containing 2 μL of EDTA-K2. The tube was centrifuged at 3000 g for 15 minutes to separate the plasma, and the separated plasma was stored at −60° C. Animals could be fed 2 hours after the administration.\nas §2, with “rats.” for “mice.”"}}, "note": "Where two headings read alike, the source gives them in different places.", "data": [{"smiles": "Cc1sc2c(c1C)C(c1ccc(Cl)cc1)=N[C@@H](CC(=O)Nc1ccc3c(c1)COC3=O)c1nnc(C)n1-2", "note": "[Compound of formula (I)]", "values": [{"measurement": "tolerance", "setting": "[1]", "result": "good tolerance"}, {"measurement": "bioavailability", "setting": "[2]", "result": 37.5, "unit": "%"}, {"measurement": "Vd", "setting": "[3]; intravenous, 2 mg/kg, read-out: Apparent distribution Vdss", "result": 1.48, "unit": "L/kg"}, {"measurement": "AUC(0-inf)", "setting": "[3]; intravenous, 2 mg/kg", "result": 2.22, "unit": "µM·h"}, {"measurement": "AUC(0-t)", "setting": "[3]; intravenous, 2 mg/kg", "result": 2.21, "unit": "µM·h"}, {"measurement": "clearance", "setting": "[3]; intravenous, 2 mg/kg, read-out: Clearance rate Cl", "result": 28.3, "unit": "mL/min/kg"}, {"measurement": "half-life", "setting": "[3]; intravenous, 2 mg/kg", "result": 0.683, "unit": "h"}, {"measurement": "bioavailability", "setting": "[3]; po, intragastric, 10 mg/kg", "result": 29.3, "unit": "%"}, {"measurement": "AUC(0-inf)", "setting": "[3]; po, intragastric, 10 mg/kg", "result": 3.25, "unit": "µM·h"}, {"measurement": "AUC(0-t)", "setting": "[3]; po, intragastric, 10 mg/kg", "result": 3.22, "unit": "µM·h"}, {"measurement": "Cmax", "setting": "[3]; po, intragastric, 10 mg/kg, read-out: Drug concentration in blood Cmax", "result": 1160, "unit": "nM"}, {"measurement": "half-life", "setting": "[3]; po, intragastric, 10 mg/kg", "result": 1.01, "unit": "h"}, {"measurement": "Tmax", "setting": "[3]; po, intragastric, 10 mg/kg, read-out: Time to peak Tmax", "result": 1, "unit": "h"}]}]}
